Reference: ChEMBL document CHEMBL1147983
pIC50: −log10 of the molar value.

Assays:
Aurora kinase A = molecular target: T1, Aurora kinase A (Homo sapiens, UniProt O14965)
T1 sequence (O14965 whole entry): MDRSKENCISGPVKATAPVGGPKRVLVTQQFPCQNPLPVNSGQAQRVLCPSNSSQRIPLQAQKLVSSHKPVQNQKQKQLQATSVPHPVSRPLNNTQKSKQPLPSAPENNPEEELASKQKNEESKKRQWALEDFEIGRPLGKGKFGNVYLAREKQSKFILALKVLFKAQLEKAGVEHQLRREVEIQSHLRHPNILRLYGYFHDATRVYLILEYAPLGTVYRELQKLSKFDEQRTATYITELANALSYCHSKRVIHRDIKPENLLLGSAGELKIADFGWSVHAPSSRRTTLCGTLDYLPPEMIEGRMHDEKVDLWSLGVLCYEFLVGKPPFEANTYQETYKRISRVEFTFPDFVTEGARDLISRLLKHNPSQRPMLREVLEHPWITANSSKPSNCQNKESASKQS

[1] = molecular target: Epidermal growth factor receptor (Homo sapiens, UniProt P00533); test: Inhibition of EGFR
Epidermal growth factor receptor, sequence (P00533 whole entry): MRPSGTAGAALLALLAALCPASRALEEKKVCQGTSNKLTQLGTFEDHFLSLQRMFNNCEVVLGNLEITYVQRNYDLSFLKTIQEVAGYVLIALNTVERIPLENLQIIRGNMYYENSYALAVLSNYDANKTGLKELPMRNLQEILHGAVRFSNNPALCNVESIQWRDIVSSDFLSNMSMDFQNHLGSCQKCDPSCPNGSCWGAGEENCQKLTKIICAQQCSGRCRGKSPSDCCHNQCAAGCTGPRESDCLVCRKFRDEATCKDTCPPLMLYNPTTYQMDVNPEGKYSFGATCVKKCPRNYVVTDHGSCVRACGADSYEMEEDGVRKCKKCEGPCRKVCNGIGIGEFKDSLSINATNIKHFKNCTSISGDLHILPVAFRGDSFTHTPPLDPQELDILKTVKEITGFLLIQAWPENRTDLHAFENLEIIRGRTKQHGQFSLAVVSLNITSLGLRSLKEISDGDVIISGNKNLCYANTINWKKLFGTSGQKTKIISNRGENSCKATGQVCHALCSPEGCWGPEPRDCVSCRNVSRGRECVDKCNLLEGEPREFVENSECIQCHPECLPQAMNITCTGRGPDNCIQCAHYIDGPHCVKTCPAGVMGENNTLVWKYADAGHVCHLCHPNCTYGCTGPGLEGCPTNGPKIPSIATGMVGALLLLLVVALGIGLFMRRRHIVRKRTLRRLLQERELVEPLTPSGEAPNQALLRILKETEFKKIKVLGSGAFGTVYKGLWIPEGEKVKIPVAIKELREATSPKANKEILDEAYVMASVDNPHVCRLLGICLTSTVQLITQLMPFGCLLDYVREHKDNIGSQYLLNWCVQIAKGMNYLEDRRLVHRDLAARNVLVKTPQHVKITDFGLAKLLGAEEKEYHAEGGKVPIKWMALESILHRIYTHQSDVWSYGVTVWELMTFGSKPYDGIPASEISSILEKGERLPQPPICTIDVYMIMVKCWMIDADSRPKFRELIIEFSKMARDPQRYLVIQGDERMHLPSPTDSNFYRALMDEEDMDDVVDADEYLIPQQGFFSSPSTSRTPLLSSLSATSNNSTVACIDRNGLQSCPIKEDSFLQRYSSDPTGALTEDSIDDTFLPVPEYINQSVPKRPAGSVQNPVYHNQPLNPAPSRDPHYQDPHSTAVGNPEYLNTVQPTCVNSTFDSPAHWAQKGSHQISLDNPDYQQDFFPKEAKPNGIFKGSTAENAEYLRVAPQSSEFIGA

| pIC50 (Aurora kinase A) | pIC50 [1] | Compound |
| --- | --- | --- |
| 6.03 | < 5.00 | O=C(Nc1cccc(Nc2ccnc(Nc3cccc(C(F)(F)F)c3)n2)c1)C1CC1 |
| < 5.00 | 7.68 | O=C(Nc1cccc(Nc2cc(Nc3cccc(C(F)(F)F)c3)ncn2)c1)C1CC1 |
| – | < 5.00 | O=C(Nc1cccc(Nc2nccc(Nc3cccc(C(F)(F)F)c3)n2)c1)C1CC1 [ANILINOPYRIMIDINE1] |
